Data reported in paper PMC11483813, “Bombesin-Targeted Delivery of β-Carboline-Based Ir(III) and Ru(II) Photosensitizers for a Selective Photodynamic Therapy of Prostate Cancer” (Inorganic Chemistry, 2024).

Legend:
[1] = test system: PC-3 cells; assay: Apoptosis assay, annexin V/propidium iodide; format: cell-based, human; settings: five times IC50,light, photoactivated, 24 h
Method: Mitochondria play an important role in the regulation of apoptosis. Alterations in the MMP can cause the release of apoptotic factors, such as cytochrome c, which activates the caspase cascade, leading to programmed cell death.[66],[67] In order to elucidate whether the toxic effect of the compounds at the mitochondrial level triggers cell death by apoptosis, a dual annexin V/propidium iodide labeling experiment was performed. The initial stages of apoptosis are characterized by alterations in the symmetry of phospholipids in the cytoplasmic membrane, which can be detected using annexin V (An). The late stages also include disruption of the cell membrane, permitting the penetration of propidium iodide (PrI), which emits red fluorescence when bound to DNA. […]
Figure 13 Cell death mechanism. […] After 24 h, the percentage of viable, necrotic, early apoptotic, and late apoptotic cells was analyzed by flow cytometry using propidium iodide and annexin V staining. […]
PC-3 cells were seeded into 12-well plates at a density of 100000 cells/well. […] The samples were immediately analyzed using a Novocyte flow cytometer. Annexin-FITC staining was detected at a wavelength of 520 nm, and propidium iodide was detected at 617 nm. The fluorescence emission of 10000 cells per sample was measured, and the percentages of live, early apoptotic, late apoptotic, and necrotic cell populations were determined.

[2] = test system: PC-3 cells; assay: Intracellular ROS generation (H2DCFDA, flow cytometry); format: cell-based, human; settings: IC50,light 4 h, blue light 1 h
Method: The photocytotoxic effects of the complexes and metallopeptides were further elucidated by evaluating their ability to photogenerate ROS at the cellular level. PC-3 cells were treated with the compounds at the respective IC50,light and irradiated with blue light. Subsequently, ROS generation was measured using the 2′,7′-dichlorodihydrofluorescein diacetate (H2DCFDA) probe, which diffuses into cells and is oxidized by ROS to produce a green fluorescent signal. […] Nevertheless, to ascertain the potential contributions of other ROS to the photocytotoxic activity, the capacity of the compounds to undergo type I PDT processes, resulting in the production of superoxide anions (O2^•–), was examined using a specific fluorescent probe that emits an orange signal upon interaction with this radical. […]
Figure 9 Intracellular ROS generation. […] The elevation of general ROS (A) and superoxide anion (B) levels was determined with specific probes by flow cytometry. […]
PC-3 cells were seeded at a density of 100000 cells per well in 12-well plates and incubated overnight. […] Cells were subsequently harvested by trypsinization, and the median fluorescence emission of 10000 cells was measured using a Novocyte flow cytometer equipped with NovoExpress software. The fluorescence fold increase relative to untreated control cells was calculated. […]

COC(=O)/C=C/c1ccc(-c2nccc3c4ccccc4n(C)c23)nc1.[Cl-].[Ir+3].[c-]1ccccc1-c1ccccn1.[c-]1ccccc1-c1ccccn1 [Ir-Me]
cells in early apoptosis [1]: 11.9% | cells in late apoptosis [1]: 41.7% | ROS levels, fold increase versus control cells [2]: 4.5 fold
